According to patent US6291247A, “Methods of screening for factors that disrupt neurotrophin conformation and reduce neurotrophin biological activity” (priority 1996, dated 2001):
Entries after “also recorded” stand apart in the source; their conditions may differ. Bridges are numbered along the chain shown (N, C = ends).

What was measured:
[1] = tested on: PC12 cells; test: Toxicity to PC12 cells; format: cell-based, rat
Procedure: Effects of divalent ions on NGF mediated survival and toxicity was evaluated using a colorimetric assay for the lysosomal enzyme acid phosphatase to determine cell number (Connolly, D. T., Knight, M. B., Harakas, N. K, Wittwer, A. J. & Feder, J. Determination of the number of endothelial cells in culture using an acid phosphatase assay. Anal. Biochem. 152, 136-140 (1986); Ueda, Y., Walsh, E., Nakanishi H. & Yoshida, K. A. colorometric assay method for the evaluation of neurotrophic activity in vitro. Neurosci. Lett. 165, 203-207 (1994)). […] To evaluate toxicity, the cells were seeded and maintained without NGF in RPMI with 10% heat inactivated donor horse serum and 5% fetal calf serum in the presence of additives. Loss in viable cell number was determined and expressed as a percent of control. NGF rescues PC12 cells from cell death in serum-free medium(Greene, L. A. Nerve growth factor prevents the death and stimulates neuronal differentiation of clonal PC12 pheochromocytoma cells in serum-free medium. J. Cell Biol. 78, 747-755 (1978)). NGF-dependent survival was assessed by harvesting PC12 cells in balanced salt solution followed with washing by 4 cycles of suspension and centrifugation in serum-free RPMI prior to seeding in 96 well plates. After incubation with additives, medium was removed from the wells and cells washed once with 200 μl PBS. Buffer containing 0.1M sodium acetate pH 5.5, 0.1% Triton X-100 and 10 mM p-nitrophenyl phosphate (Sigma 104 phosphatase substrate) was added to each well (100 μl). Plates were incubated at 37° C. for 3 hours. The reaction was stopped by the addition of 10 μl/well of 1N sodium hydroxide and the color development measured at 405 nm using a microplate reader. The relationship between cell number and enzyme activity was linear over the range 1000 to 15,000 cells.
(§1) To explore the ability of other transition metals to influence the biological activities of NGF, a series of cations known to mimic in certain respects the binding of zinc to proteins were tested. […] For this reason these ions were not tested in NGF- dependant growth phenomena. […] As these studies appeared to indicate potentially complex results upon metal ions binding to NGF, a receptor crosslinking system where specific receptor types could be identified was utilized.

[2] = tested on: p75^NTR; test: 125I-BDNF binding to p75NTR; settings: 100 μM Zn2+, n = 3; 120 min
Procedure: Full length (1-118) mouse NGF purified by HPLC from 2.5S NGF (purity greater than 95%) was obtained from Cedarlane Laboratories (Toronto, Ont). The iodination of NGF was performed as previously described (Sutter, A, Riopelle, R. J., Harris-Warrick, R. M. & Shooter, E. M. Nerve growth factor receptors. J. Biol. Chem. 254, 5972-5982 (1979)). […] PC12 cells were grown in RPMI with 10% heat inactivated donor horse serum and 5% fetal calf serum. Each data point was set up in a single tube containing ^125 I-NGF (at the required concentration), 400,000 cells (for a final call concentration of 10^6 /ml), BDNF (at 40 nM for TrkA binding) and NGF (at 10 nM for non-specific binding) as required. The tubes were incubated for 2 hr at 4° C. and 100 μl aliquots (providing triplicate data points for each sample) were transferred to 400 μl microcentrifuges containing 200 μl of 10% glycerol in HKR. Tubes were centrifuged for 2 minutes at 5,000 rpm, the tip containing the cell pellet cut off and radioactivity bound to the cells was determined.
Human recombinant BDNF and human recombinant NT-3 were obtained from Alomone Laboratories (Israel). The iodination, crosslinking, and binding experiments using BDNF and NT-3 were performed using the methods described above for NGF. Neurite outgrowth assays were performed as described in the presence of 4.0 nM NT-3 or 8.0 nM BDNF.

[3] = tested on: p75^NTR /TrkA; test: Receptor crosslinking of 125I-NGF with transition metal ions (receptor selectivity); format: binding
Procedure: as §1

[4] = tested on: dorsal root ganglion (DRG) neurons; test: NGF-dependent neurite growth of ED8 chick DRG neurons (FIG. 6, Terasaki plates); format: cell-based
Procedure: FIG. 6 is a graph showing the ability of R11 to inhibit the activity of NGF in vitro using a biological assay system. […] Dissociated cells enriched for sensory neurons were prepared from embryonic day 8 (ED8) chick dorsal root ganglion (DRG) as described (Sutter et al., J. Biol. Chem. 254: 5972-5982 (1979)). Neurons were seed into wells of Terasaki plates treated sequentially with poly-D-lysine and laminin at a density of 800-1000 cells/well in "synthetic" Dulbecco's modified Eagle medium (Bottenstein et al., Proc. Natl. Acad. Sci. USA 76: 514-517 (1979)) containing 1% fetal calf serum and NGF at […]. The cells were incubated with the additives indicated at 37° C. in a 5% CO2 atmosphere At 18-20 hours, the cells were fixed in 4% formaldehyde in phosphate-buffered saline and scored for neurite growth. The cells on the entire lower horizontal surface of the well were counted using an inverted microscope fitted with phase contrast optics. A neurite was scored if its caliber from origin to terminal was constant and its length was equal to or greater than 1.5 cell body diameters. Neurite growth was corrected for background (no NGF) growth in the presence and absence of peptide.
Such a profile is not typical of a competitive inhibitor. That is, a different dose response profile would be expected if R11 were simply competing with NGF for binding to a receptor. Neither of the less constrained synthetic Intermediates of R11, i.e., R11 (linear) or R11 (monocyclic), was as effective in blocking NGF-dependent neurite growth concentrations up to 200 μM.

[5] = tested on: DRG neurons; test: Survival of chick DRG neurons at 24 hours; format: cell-based; settings: 500 μM
[6] = biological target: T1, NGF (Mus musculus, UniProt P01139); test: Cross-linking of NGF protomers in a cell-free system (Example 6); format: biochemical
T1 construct: homodimer
T1 sequence (P01139 122-239): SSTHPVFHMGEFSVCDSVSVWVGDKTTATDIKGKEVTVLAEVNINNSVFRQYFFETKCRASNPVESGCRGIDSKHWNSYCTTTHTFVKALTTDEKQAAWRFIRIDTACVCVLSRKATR
Text: That is, under denaturing conditions, NGF normally dissociates and electrophoreses as a monomer (FIG. 8, lane 1). In contrast, native NGF dimers that had been covalently cross-linked by BS^3 were unable to dissociate and were resolved from free monomer as a more slowly migrating band on the gel (FIG. 8, lane 2).

Sequence of p75^NTR /TrkA (P01139 122-239): as above
Sequence of p75^NTR /TrkA (P07174 30-425 partner): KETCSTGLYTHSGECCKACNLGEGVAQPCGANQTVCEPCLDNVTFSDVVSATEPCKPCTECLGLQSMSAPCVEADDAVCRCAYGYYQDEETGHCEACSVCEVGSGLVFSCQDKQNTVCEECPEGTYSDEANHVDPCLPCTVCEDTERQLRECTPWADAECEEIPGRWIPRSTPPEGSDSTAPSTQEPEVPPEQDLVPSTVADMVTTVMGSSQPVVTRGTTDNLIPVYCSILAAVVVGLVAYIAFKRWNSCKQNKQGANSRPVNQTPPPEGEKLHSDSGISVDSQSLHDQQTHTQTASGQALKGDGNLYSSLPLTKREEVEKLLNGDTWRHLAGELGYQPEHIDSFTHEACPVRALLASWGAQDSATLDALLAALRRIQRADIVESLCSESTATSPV
Sequence of p75^NTR /TrkA (P35739 33-799 partner): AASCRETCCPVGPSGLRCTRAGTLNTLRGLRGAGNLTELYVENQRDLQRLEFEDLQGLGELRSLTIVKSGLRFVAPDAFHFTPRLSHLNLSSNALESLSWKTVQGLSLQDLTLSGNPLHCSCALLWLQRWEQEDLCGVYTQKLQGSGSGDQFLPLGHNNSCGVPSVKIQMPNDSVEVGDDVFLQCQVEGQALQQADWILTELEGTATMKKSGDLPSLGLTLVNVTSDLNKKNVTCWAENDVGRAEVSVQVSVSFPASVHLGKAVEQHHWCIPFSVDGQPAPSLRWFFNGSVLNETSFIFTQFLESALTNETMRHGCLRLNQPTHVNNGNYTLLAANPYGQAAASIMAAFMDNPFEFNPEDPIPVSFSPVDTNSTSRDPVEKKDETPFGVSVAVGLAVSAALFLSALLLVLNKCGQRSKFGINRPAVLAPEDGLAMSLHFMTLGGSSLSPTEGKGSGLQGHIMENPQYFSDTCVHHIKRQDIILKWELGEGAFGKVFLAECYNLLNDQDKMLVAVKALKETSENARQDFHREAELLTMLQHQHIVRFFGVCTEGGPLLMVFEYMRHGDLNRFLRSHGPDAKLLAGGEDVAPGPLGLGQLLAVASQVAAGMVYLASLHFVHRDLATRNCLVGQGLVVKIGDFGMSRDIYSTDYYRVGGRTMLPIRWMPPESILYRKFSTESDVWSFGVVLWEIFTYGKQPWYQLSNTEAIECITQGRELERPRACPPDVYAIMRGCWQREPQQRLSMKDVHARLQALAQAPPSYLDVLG

Row | Molecule | Toxicity (PC12 cell viability) ([1]; 100 μM) | Toxicity to PC12 cells ([1]; in presence of serum, up to 100 μM) | % Maximum p75NTR binding, 125I-BDNF [2] | Blocking of NGF binding to TrkA and p75NTR in receptor crosslinking [3] | Block of NGF-mediated neurite growth ([4]; 100 μM) | IC50 ([4]; ED8 chick DRG neurons, FIG. 6, read-out: IC50, inhibition of NGF-dependent neurite growth) | Block of NGF-mediated neurite growth ([4]; concentration similar to 200 μM) | Survival of neurons at 24 hours [5] | NGF protomer cross-linking to BSA ([6]; 100 μM R11) | Cross-linking of NGF promoters by BS3 ([6]; 100 μM R11, cell-free)
1 | [Zn+2] [Zn^2+] | 97 ± 11 % control | no loss in cell viability; also recorded: not toxic | 10.0 ± 4.5 % Maximum binding | blocked binding to both receptors | – | – | – | – | – | –
2 | NH2 -Cys-Gly-Ser-Glu-Val-Pro-Asn-Ser-Ala-Arg-Cys-Cys-Val-Cys-OH (H-CGSEVPNSARCCVC-OH; disulfide 1-14, 11-12) [R11, bicyclic peptide of NGF residues 68-58/108-110, two disulfide bonds] | – | – | – | – | 70% | 10 µM | virtually all | not influenced | increased dramatically | reduced almost to the point of elimination; also recorded: loss of NGF dimer
